# Measured values from ChEMBL document CHEMBL5291721, “A preclinical secondary pharmacology resource illuminates target-adverse drug reaction associations of marketed drugs” (Nat Commun, 2023).
# Columns and labels:
# Androgen receptor = molecular target: T1, Androgen receptor (Homo sapiens, UniProt P10275)
# T1 sequence (P10275 whole entry): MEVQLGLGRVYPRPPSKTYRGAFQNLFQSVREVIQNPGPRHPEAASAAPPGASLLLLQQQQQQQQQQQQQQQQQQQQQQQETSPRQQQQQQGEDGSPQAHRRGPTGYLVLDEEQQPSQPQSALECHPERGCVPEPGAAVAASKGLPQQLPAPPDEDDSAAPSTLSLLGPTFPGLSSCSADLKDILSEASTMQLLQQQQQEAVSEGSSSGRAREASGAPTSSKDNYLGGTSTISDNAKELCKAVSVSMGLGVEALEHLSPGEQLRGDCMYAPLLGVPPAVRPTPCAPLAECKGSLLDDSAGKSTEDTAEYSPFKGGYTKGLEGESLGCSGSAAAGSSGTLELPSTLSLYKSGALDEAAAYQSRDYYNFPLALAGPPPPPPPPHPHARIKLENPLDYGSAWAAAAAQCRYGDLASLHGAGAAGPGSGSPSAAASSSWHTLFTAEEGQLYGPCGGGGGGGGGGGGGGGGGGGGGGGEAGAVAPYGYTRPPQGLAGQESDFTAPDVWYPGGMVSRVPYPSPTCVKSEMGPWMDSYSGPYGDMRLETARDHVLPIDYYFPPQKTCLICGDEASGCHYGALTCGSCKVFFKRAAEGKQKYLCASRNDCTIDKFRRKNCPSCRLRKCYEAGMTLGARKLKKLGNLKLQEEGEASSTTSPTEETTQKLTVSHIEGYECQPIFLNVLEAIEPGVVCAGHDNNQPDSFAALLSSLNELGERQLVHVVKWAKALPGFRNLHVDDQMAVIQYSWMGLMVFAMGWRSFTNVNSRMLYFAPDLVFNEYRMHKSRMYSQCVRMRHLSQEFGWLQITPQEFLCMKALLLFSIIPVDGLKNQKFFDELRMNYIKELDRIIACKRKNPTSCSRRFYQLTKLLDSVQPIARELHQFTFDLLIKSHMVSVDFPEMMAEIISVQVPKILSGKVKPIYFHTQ
# Adenosine receptor A3 = molecular target: T2, Adenosine receptor A3 (Homo sapiens, UniProt P0DMS8)
# T2 sequence (P0DMS8 whole entry): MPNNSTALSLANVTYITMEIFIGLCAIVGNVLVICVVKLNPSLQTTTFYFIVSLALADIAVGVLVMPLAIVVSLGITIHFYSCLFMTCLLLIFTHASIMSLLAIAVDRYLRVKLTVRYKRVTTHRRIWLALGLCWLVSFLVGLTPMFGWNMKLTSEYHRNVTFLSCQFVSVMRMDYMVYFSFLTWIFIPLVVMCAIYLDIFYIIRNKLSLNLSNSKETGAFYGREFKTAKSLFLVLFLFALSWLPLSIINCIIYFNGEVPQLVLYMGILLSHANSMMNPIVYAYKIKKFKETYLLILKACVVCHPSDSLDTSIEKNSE
# [1] = molecular target: T3, Alpha-2A adrenergic receptor (Homo sapiens, UniProt P08913); assay type: functional, cell-based
# T3 sequence (P08913 whole entry): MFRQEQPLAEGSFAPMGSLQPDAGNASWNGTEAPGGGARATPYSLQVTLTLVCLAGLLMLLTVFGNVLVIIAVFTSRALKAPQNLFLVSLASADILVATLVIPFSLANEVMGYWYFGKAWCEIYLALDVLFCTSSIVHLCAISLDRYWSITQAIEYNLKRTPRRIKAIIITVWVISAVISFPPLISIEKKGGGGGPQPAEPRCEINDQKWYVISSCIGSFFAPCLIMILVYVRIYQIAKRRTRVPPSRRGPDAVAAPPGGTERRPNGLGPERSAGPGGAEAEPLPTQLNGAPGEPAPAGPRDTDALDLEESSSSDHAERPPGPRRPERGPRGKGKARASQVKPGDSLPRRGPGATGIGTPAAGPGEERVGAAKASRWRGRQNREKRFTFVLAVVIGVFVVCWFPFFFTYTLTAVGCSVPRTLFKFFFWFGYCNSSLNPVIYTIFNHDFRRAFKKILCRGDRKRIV
# [2] = molecular target: T4, Equilibrative nucleoside transporter 1 (Homo sapiens, UniProt Q99808)
# T4 sequence (Q99808 whole entry): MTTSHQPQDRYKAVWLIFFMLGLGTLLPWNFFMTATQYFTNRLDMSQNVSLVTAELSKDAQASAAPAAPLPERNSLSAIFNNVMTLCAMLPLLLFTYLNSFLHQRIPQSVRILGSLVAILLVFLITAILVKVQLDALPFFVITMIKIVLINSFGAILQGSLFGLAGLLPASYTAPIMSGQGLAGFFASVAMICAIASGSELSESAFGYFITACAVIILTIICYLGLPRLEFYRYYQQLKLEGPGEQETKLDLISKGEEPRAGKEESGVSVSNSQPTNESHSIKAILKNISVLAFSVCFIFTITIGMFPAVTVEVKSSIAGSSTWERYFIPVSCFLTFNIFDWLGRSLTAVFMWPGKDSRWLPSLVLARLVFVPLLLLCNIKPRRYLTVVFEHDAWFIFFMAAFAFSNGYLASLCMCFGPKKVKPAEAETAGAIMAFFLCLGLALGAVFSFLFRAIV
# Endothelin-1 receptor = molecular target: T5, Endothelin-1 receptor (Homo sapiens, UniProt P25101)
# T5 sequence (P25101 whole entry): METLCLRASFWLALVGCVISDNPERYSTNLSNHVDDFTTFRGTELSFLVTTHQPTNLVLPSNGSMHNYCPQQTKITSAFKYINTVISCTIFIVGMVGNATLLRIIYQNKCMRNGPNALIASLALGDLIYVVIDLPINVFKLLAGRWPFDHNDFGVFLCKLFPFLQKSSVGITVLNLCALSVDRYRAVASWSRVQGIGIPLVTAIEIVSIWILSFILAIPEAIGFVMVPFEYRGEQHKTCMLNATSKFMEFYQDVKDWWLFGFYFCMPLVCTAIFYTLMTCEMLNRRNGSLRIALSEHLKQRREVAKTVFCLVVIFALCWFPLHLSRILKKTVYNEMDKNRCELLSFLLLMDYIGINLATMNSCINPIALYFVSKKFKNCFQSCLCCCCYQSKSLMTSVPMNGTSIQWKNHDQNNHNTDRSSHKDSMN
# Vasopressin V1a receptor = Vasopressin V1a receptor (Homo sapiens, UniProt P37288)
# Chain of Vasopressin V1a receptor (P37288 whole entry): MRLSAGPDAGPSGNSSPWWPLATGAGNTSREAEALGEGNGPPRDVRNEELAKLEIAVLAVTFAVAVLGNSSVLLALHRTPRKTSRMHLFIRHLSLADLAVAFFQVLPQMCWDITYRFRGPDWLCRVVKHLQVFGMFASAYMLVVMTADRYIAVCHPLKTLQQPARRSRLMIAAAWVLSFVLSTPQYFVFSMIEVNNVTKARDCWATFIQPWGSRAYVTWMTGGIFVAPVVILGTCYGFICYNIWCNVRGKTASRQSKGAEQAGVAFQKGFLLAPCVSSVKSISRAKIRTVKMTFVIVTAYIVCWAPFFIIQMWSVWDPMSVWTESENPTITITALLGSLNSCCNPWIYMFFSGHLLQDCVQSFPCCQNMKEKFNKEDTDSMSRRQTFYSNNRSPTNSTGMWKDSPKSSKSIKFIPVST
# [3] = molecular target: 5-hydroxytryptamine receptor 2B (Homo sapiens, UniProt P41595); assay type: functional, cell-based
# Chain of 5-hydroxytryptamine receptor 2B (P41595 whole entry): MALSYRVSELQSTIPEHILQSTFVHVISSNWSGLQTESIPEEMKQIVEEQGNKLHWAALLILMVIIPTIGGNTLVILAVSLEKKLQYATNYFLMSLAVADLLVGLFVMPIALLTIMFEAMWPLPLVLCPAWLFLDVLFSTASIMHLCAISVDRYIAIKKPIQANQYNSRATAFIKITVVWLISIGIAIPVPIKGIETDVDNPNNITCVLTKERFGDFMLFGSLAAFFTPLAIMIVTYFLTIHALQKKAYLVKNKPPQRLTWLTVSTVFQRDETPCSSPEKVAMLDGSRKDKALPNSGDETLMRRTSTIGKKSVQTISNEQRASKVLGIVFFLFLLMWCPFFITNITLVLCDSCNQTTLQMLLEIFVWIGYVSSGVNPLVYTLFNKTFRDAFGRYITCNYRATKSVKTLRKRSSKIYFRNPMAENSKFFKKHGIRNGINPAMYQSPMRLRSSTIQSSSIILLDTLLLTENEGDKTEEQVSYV
# [4] = molecular target: 3',5'-cyclic-AMP phosphodiesterase 4D (Homo sapiens, UniProt Q08499); assay type: functional
# Chain of 3',5'-cyclic-AMP phosphodiesterase 4D (Q08499 whole entry): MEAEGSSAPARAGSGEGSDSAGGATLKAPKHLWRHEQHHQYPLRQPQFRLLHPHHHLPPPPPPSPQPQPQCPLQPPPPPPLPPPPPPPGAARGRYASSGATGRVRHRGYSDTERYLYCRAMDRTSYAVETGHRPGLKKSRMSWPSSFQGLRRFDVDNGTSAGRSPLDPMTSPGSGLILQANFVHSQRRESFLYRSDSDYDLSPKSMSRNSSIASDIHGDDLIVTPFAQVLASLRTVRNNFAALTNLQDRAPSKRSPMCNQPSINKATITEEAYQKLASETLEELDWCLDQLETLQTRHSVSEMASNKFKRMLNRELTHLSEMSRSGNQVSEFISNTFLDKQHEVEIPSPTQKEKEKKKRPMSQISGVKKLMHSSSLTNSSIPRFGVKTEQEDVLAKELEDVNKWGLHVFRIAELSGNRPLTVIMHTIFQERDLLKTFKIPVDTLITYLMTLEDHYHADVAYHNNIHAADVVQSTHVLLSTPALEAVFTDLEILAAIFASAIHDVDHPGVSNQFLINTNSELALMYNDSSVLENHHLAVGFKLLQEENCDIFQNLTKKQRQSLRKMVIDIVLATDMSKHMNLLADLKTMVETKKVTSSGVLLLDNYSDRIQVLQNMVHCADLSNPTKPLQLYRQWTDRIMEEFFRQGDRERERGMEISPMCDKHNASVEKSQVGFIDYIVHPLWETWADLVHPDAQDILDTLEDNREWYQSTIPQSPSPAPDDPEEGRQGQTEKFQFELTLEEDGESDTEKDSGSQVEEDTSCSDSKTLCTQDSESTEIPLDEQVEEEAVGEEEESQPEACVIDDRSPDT
# [5] = molecular target: Vascular endothelial growth factor receptor 2 (Homo sapiens, UniProt P35968); assay type: functional
# Chain of Vascular endothelial growth factor receptor 2 (P35968 whole entry): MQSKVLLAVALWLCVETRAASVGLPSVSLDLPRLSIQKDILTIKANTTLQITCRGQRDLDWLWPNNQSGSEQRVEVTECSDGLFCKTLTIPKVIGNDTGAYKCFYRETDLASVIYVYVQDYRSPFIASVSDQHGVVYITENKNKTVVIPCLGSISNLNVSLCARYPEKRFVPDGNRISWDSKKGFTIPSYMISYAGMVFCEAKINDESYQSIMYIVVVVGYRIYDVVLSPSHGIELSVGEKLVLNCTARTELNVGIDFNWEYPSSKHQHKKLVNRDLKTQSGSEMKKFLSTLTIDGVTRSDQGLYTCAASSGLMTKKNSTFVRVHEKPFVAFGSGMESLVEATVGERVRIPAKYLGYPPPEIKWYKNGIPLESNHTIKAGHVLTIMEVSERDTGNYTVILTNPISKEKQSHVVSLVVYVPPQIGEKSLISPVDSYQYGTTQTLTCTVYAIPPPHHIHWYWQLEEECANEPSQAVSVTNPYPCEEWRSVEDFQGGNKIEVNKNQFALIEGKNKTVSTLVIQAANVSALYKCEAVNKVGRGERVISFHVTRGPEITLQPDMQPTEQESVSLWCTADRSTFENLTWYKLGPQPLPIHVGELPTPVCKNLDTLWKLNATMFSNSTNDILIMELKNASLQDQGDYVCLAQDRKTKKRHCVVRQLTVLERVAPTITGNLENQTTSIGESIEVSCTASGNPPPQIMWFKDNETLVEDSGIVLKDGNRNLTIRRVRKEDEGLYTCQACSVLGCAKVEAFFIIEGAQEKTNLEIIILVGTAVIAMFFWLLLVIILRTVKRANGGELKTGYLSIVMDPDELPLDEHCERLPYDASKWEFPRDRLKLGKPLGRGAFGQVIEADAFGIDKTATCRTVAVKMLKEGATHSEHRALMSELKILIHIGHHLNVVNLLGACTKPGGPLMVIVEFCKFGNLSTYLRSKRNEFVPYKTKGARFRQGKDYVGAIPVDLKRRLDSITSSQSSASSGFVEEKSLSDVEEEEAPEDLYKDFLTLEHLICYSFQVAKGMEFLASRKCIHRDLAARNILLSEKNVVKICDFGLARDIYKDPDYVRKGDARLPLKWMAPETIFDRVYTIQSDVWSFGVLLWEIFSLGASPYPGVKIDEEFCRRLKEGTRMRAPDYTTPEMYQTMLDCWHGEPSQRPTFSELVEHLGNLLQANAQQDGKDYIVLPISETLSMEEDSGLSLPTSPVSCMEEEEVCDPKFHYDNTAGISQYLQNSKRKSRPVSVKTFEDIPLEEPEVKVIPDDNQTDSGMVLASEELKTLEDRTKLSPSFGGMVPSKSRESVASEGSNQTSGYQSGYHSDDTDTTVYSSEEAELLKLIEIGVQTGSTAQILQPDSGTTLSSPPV
# [6] = molecular target: Beta-2 adrenergic receptor (Homo sapiens, UniProt P07550); assay type: functional, cell-based
# Chain of Beta-2 adrenergic receptor (P07550 whole entry): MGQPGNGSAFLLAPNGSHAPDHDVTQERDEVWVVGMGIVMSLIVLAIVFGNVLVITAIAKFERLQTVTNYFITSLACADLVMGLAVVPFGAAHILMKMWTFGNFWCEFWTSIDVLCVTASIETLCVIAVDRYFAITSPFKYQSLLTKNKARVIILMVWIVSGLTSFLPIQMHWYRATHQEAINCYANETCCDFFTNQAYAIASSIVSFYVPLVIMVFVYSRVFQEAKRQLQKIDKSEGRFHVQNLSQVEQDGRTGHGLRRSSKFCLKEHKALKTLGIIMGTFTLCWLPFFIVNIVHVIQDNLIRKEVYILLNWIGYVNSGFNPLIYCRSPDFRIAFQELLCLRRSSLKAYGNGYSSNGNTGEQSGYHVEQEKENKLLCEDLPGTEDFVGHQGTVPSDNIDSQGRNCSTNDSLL
# [7] = molecular target: cGMP-inhibited 3',5'-cyclic phosphodiesterase 3A (Homo sapiens, UniProt Q14432); assay type: functional
# Chain of cGMP-inhibited 3',5'-cyclic phosphodiesterase 3A (Q14432 whole entry): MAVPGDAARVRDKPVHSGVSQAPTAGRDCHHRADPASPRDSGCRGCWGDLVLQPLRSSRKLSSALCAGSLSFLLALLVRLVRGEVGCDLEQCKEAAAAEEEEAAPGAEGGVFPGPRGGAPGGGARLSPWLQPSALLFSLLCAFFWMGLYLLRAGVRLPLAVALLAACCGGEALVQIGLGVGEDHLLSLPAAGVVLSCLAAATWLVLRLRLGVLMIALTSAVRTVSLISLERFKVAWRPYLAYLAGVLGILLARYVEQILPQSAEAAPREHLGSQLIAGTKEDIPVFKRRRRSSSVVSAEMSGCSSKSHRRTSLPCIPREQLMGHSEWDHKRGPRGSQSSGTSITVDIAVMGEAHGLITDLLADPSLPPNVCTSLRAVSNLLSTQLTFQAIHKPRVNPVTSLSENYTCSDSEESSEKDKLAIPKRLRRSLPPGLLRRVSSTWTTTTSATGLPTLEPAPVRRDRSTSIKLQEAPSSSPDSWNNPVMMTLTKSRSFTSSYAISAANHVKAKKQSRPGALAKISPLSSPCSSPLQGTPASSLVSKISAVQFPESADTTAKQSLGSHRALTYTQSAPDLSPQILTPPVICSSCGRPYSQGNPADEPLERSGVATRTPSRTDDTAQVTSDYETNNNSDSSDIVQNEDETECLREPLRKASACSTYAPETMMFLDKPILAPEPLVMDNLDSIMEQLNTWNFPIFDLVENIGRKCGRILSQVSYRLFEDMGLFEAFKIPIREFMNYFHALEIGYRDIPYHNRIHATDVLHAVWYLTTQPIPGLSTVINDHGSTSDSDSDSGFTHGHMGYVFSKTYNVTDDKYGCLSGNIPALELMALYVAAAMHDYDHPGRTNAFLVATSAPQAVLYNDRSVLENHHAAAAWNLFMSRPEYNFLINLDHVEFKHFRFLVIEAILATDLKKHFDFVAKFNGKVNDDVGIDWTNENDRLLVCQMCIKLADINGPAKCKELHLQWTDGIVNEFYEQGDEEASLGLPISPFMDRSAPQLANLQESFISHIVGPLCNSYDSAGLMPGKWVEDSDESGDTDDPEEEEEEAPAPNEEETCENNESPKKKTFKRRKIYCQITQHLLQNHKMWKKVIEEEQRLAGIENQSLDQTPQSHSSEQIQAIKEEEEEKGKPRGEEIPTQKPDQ
# Note: assay procedure not described here.
SMILES,AC50 (Androgen receptor) [µM],AC50 (Adenosine receptor A3) [µM],AC50 [1] [µM],AC50 [2] [µM],AC50 (Endothelin-1 receptor) [µM],AC50 (Vasopressin V1a receptor) [µM],AC50 [3] [µM],AC50 [4] [µM],AC50 [5] [µM],AC50 [6] [µM],AC50 [7] [µM]
CN[C@@H]1[C@H](O[C@H]2[C@H](O[C@H]3[C@H](O)[C@@H](O)[C@H](NC(=N)N)[C@@H](O)[C@@H]3NC(=N)N)O[C@@H](C)[C@]2(O)CO)O[C@@H](CO)[C@H](O)[C@H]1O [DIHYDROSTREPTOMYCIN],> 30,,,,,,,,,,
O=C(O)Cc1ccccc1Oc1ccc(Cl)cc1Cl [FENCLOFENAC],,> 30,> 10,> 30,> 30,> 10,> 10,> 10,> 30,> 30,> 30
CC(C)C(=O)Oc1ccc(CO)cc1[C@H](CCN(C(C)C)C(C)C)c1ccccc1 [FESOTERODINE],> 30,> 30,,,,,,,,,
Cc1onc(-c2c(F)cccc2Cl)c1C(=O)N[C@@H]1C(=O)N2[C@@H]1SC(C)(C)[C@@H]2C(=O)O [FLOXACILLIN],,,> 30,> 30,> 30,> 30,> 30,> 30,,> 30,> 30
C#C[C@]1(O)C=C[C@H]2[C@@H]3CCC4=CC(=O)CC[C@@H]4[C@H]3CC[C@@]21CC [GESTODENE],0.003,,,,,,,,,,
COc1ccccc1OC1(C)OC(=O)c2ccccc2O1 (stereo unspecified) [GUAIMESAL],> 30,,,> 30,> 30,> 30,,,,,
COc1cc(C(C)=O)ccc1OCCCN1CCC(c2noc3cc(F)ccc23)CC1 [ILOPERIDONE],,,0.45,> 30,> 30,> 30,1.8,> 30,,> 30,
CC[C@H](C)C(=O)O[C@H]1C[C@@H](C)C=C2C=C[C@H](C)[C@H](CC[C@@H]3C[C@@H](O)CC(=O)O3)[C@H]21 [LOVASTATIN],,,> 10,> 30,> 30,> 10,23,> 30,,> 30,> 30
S=P(N1CC1)(N1CC1)N1CC1 [THIOTEPA],,,14,> 30,> 30,> 30,1.6,> 30,,> 30,> 30
CC(C)[C@H](N)C(=O)OCCOCn1cnc2c(=O)[nH]c(N)nc21 [VALACYCLOVIR],,,> 10,> 30,> 30,> 10,> 10,> 30,,> 30,> 30
O=C1Cc2cc(CCN3CCN(c4nsc5ccccc45)CC3)c(Cl)cc2N1 [ZIPRASIDONE],,8.66,,> 30,> 30,> 10,0.229,> 30,11.2,> 30,> 30
